Test results published in publication PMC5023282, “A rapid fluorometric assay for the S-malonyltransacylase FabD and other sulfhydryl utilizing enzymes” (Journal of Biological Methods, 2016).

Target: T1, FabD (malonyl-coenzyme A transacylase; malonyl-CoA:ACP transacylase) (Escherichia coli, UniProt P0AAI9)
T1 construct: full ORF in pET28b (NcoI/EcoRI), one extra N-terminal glycine, no His tag; expressed in E. coli BL21* DE3
Assay: CPM fluorescence detection of CoA-SH after TCA precipitation of holo-ACP, initial rates
Format: biochemical
Details: holo-ACP 125 µM; 25 mM MOPS, 100 mM NaCl, 1 mg/ml BSA, pH 7.1, 30°C
Text: CPM fluorescence detection of CoA-SH after TCA precipitation of holo-ACP, initial rates on FabD (malonyl-coenzyme A transacylase; malonyl-CoA:ACP transacylase)

T1 sequence (P0AAI9 2-309): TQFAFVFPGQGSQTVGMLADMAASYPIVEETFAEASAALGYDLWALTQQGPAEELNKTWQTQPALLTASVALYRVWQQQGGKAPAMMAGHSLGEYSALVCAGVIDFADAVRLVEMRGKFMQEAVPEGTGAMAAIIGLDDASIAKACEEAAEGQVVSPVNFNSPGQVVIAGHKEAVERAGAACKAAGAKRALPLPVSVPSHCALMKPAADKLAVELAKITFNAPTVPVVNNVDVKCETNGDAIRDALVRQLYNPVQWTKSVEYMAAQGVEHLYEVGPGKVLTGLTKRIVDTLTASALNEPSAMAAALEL

CC(C)(COP(=O)(O)OP(=O)(O)OC[C@H]1O[C@@H](n2cnc3c(N)ncnc32)[C@H](O)[C@@H]1OP(=O)(O)O)[C@@H](O)C(=O)NCCC(=O)NCCSC(=O)CC(=O)O [malonyl-CoA]
Km: 60 ± 20 µM
